Laboratory results from paper doi:10.1101/2021.05.27.445942v1 (biorxiv, 2021).

Target: T1, CmedPR2 (with CmedORco) (Cnaphalocrocis medinalis, UniProt A0A0U3BFF0)
T1 sequence (A0A0U3BFF0 1-434): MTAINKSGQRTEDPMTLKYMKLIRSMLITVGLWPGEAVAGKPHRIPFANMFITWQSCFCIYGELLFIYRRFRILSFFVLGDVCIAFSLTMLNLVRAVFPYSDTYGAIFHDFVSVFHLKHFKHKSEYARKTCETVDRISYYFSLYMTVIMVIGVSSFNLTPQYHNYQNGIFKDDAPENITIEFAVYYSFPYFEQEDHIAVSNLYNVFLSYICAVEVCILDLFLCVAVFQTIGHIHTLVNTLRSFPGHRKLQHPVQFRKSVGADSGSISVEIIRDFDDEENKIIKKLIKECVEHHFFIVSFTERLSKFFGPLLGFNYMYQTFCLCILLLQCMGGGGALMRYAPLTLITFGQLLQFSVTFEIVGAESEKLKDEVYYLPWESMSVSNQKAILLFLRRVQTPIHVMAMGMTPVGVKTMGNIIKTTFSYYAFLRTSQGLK
T1 sequence (H9XFD5 1-473 partner): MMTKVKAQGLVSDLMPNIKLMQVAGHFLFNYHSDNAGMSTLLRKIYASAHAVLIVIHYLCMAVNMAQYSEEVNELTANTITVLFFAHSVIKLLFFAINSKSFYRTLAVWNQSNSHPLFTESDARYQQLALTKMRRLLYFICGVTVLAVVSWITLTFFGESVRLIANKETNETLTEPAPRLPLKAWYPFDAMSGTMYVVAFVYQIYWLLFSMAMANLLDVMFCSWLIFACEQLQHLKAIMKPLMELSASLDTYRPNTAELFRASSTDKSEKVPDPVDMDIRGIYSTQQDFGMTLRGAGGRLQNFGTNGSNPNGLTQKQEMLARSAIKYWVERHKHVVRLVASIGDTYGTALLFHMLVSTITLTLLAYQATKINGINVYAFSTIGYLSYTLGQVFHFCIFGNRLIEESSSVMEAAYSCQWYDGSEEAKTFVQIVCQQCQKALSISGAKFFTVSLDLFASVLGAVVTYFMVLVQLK
Assay: two-electrode voltage clamp, Xenopus oocytes
Assay type: cell-based
Details: agonist 10-4 mol/L; co-expressed CmedORco; holding potential -80 mV; pH 7.5

SMILES	response current [nA]
CCCC/C=C\CCCCCCCCCC=O [Z11-16:Ald]	> 140
CCCC/C=C\CCCCCCCCCCCCO [Z13-18:OH, (Z)-13-octadecen-1-ol]	46 ± 1.6
CCCCCC/C=C\CCCCCCCC=O [Z9-16:Ald]	> 140
CCCC/C=C\CCCCCCCCCCCC=O [Z13-18:Ald, (Z)-13-octadecenal]	106 ± 6.4
